# Paper doi:10.1101/2021.09.30.462449v1 (biorxiv, 2021)
# Experiments:
# Assay in all cases: biochemical
# [1] = biological target: WNK1 (Homo sapiens, UniProt Q9H4A3); details: read-out: % inhibition mean (Lanthascreen)
# [2] = biological target: AMPK (A2/B2/G1) (Homo sapiens, UniProt P54646); details: read-out: % inhibition mean (Lanthascreen)
# [3] = biological target: RIPK2 (Homo sapiens, UniProt O43353); details: read-out: % inhibition mean (Lanthascreen)
# [4] = biological target: MYO3B (MYO3 beta) (Homo sapiens, UniProt Q8WXR4); details: read-out: % inhibition mean (Lanthascreen)
# [5] = biological target: MERTK (cMER) A708S (Homo sapiens, UniProt Q12866, A708S); details: read-out: % inhibition mean (Lanthascreen)
# [6] = biological target: MAPK8 (JNK1) (Homo sapiens, UniProt P45983); details: read-out: % inhibition mean (Lanthascreen)
# [7] = biological target: LIMK1 (Homo sapiens, UniProt P53667); details: read-out: % inhibition mean (Lanthascreen)
# [8] = biological target: MAP2K1 (MEK1) (Homo sapiens, UniProt Q02750); details: read-out: % inhibition mean (Lanthascreen)
# [9] = biological target: PLK4 (Homo sapiens, UniProt O00444); details: read-out: % inhibition mean (Lanthascreen)
# [10] = biological target: DDR2 N456S (Homo sapiens, UniProt Q16832, N456S); details: read-out: % inhibition mean (Lanthascreen)
# [11] = biological target: TNIK (Homo sapiens, UniProt Q9UKE5); details: read-out: % inhibition mean (Lanthascreen)
# [12] = biological target: KIT A829P (Homo sapiens, UniProt P10721, A829P); details: read-out: % inhibition mean (Lanthascreen)
# [13] = biological target: STK38 (NDR) (Homo sapiens, UniProt Q15208); details: read-out: % inhibition mean (Lanthascreen)
# [14] = biological target: AAK1 (Homo sapiens, UniProt Q2M2I8); details: read-out: % inhibition mean (Lanthascreen)
# [15] = biological target: STK38L (NDR2) (Homo sapiens, UniProt Q9Y2H1); details: read-out: % inhibition mean (Lanthascreen)
# [16] = biological target: CDK3/cyclin E1 (Homo sapiens, UniProt Q00526); details: read-out: % inhibition mean (Lanthascreen)
# [17] = biological target: ACVR2B (Homo sapiens, UniProt Q13705); details: read-out: % inhibition mean (Lanthascreen)
# [18] = biological target: MAP4K1 (HPK1) (Homo sapiens, UniProt Q92918); details: read-out: % inhibition mean (Lanthascreen)
# [19] = biological target: VRK2 (Homo sapiens, UniProt Q86Y07); details: read-out: % inhibition mean (Lanthascreen)
# [20] = biological target: ABL1 M351T (Homo sapiens, UniProt P00519, M351T); details: read-out: % inhibition mean (Lanthascreen)
# [21] = biological target: CDK7/cyclin H/MNAT1 (Homo sapiens, UniProt P50613); details: read-out: % inhibition mean (Adapta)
# [22] = biological target: PI4K2B (PI4K2 beta) (Homo sapiens, UniProt Q8TCG2); details: read-out: % inhibition mean (Adapta)
# [23] = biological target: LRRK2 G2019S FL (Homo sapiens, UniProt Q5S007, G2019S); details: read-out: % inhibition mean (Adapta)
# [24] = biological target: IRAK1 (Homo sapiens, UniProt P51617); details: read-out: % inhibition mean (Adapta)
# [25] = biological target: PI4K2A (PI4K2 alpha) (Homo sapiens, UniProt Q9BTU6); details: read-out: % inhibition mean (Adapta)
# [26] = biological target: LRRK2 FL (Homo sapiens, UniProt Q5S007); details: read-out: % inhibition mean (Adapta)
# [27] = biological target: PIK3CD/PIK3R1 (p110 delta/p85 alpha) (Homo sapiens, UniProt O00329); details: read-out: % inhibition mean (Adapta)
# [28] = biological target: LRRK2 I2020T (Homo sapiens, UniProt Q5S007, I2020T); details: read-out: % inhibition mean (Adapta)
# VRK2, sequence (Q86Y07 whole entry): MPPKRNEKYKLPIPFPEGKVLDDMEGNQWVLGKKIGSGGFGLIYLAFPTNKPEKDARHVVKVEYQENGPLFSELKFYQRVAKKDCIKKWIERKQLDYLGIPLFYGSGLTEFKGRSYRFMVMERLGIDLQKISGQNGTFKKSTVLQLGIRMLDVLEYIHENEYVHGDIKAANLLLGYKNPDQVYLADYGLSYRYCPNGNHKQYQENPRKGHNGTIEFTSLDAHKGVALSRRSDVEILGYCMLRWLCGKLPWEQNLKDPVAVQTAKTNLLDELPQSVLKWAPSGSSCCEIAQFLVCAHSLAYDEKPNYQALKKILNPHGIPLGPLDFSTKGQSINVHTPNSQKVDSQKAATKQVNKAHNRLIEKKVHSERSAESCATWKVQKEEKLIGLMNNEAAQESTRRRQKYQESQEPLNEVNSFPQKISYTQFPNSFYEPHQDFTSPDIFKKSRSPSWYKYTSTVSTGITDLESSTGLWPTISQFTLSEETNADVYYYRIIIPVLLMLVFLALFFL
# PIK3CD/PIK3R1 (p110 delta/p85 alpha), sequence (O00329 whole entry): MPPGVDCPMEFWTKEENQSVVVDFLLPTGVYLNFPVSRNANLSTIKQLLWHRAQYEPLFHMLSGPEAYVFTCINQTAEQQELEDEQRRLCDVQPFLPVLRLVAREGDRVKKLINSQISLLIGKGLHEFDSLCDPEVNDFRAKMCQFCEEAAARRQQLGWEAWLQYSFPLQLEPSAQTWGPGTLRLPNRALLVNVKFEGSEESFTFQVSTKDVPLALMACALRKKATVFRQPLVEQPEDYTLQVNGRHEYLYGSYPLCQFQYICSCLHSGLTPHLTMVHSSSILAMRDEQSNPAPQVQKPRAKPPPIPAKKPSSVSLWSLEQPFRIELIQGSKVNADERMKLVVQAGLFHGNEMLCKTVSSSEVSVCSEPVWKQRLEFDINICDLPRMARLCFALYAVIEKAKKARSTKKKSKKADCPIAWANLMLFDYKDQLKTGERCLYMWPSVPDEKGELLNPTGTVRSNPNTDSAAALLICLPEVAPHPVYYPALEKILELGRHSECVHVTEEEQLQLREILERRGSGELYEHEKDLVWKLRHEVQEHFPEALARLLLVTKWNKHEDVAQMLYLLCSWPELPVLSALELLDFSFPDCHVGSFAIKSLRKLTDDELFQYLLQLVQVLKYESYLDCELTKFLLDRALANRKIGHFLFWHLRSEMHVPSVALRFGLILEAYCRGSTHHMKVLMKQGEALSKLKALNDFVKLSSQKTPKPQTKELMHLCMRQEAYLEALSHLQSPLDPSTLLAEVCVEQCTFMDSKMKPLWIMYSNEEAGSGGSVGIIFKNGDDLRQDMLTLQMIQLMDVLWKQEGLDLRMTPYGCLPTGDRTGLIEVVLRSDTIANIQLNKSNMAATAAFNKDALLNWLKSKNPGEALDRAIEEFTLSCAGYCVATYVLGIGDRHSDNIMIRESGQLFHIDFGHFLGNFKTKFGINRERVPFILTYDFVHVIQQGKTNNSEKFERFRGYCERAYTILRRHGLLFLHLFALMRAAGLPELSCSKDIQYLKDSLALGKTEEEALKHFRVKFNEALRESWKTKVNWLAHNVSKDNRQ
# PIK3CD/PIK3R1 (p110 delta/p85 alpha), sequence (P27986 whole entry partner): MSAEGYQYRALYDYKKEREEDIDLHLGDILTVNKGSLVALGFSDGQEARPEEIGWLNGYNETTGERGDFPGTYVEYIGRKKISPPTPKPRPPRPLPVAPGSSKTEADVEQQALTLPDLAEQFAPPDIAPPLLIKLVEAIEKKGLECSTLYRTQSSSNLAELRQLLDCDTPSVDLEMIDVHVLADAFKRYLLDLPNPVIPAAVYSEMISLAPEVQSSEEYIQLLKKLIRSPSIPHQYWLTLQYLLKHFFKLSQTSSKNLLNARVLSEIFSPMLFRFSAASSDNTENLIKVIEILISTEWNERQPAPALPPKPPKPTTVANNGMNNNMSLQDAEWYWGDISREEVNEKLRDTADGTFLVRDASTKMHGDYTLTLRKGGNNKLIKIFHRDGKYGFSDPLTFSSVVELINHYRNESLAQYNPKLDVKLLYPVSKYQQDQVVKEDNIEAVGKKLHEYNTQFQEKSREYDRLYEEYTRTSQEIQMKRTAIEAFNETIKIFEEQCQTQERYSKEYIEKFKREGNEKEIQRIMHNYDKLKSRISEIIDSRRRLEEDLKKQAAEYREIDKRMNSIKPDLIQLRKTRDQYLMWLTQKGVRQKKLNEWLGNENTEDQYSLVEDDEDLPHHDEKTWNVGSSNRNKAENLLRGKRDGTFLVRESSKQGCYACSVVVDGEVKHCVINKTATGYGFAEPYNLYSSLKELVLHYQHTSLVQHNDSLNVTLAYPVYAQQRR
# CDK7/cyclin H/MNAT1, sequence (P50613 whole entry): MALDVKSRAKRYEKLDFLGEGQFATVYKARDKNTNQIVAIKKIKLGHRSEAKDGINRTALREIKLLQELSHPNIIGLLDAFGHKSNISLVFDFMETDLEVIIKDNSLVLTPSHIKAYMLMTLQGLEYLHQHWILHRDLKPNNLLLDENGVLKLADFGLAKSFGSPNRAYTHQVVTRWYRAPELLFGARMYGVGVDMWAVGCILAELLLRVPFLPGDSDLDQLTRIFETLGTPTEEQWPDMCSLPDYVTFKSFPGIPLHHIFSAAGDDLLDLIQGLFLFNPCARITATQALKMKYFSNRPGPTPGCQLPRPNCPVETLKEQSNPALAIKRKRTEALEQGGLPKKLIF
# CDK7/cyclin H/MNAT1, sequence (P51946 whole entry partner): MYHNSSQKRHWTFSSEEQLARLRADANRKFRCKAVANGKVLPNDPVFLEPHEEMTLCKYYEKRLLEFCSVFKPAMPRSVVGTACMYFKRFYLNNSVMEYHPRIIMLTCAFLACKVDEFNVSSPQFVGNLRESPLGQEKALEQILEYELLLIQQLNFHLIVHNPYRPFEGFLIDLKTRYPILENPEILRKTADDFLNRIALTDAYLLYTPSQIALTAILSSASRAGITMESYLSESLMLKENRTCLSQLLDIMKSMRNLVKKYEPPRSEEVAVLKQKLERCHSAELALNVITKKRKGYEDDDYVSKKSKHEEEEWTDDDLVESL
# CDK7/cyclin H/MNAT1, sequence (P51948 whole entry partner): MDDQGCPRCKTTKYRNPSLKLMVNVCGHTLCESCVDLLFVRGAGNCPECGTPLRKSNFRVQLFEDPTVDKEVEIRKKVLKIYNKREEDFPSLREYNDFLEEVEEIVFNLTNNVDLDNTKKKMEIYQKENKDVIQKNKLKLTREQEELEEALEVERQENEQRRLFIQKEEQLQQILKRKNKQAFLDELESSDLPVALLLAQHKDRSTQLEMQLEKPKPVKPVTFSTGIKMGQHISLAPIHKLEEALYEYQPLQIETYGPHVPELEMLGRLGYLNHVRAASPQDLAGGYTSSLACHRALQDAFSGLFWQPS
# ACVR2B, sequence (Q13705 whole entry): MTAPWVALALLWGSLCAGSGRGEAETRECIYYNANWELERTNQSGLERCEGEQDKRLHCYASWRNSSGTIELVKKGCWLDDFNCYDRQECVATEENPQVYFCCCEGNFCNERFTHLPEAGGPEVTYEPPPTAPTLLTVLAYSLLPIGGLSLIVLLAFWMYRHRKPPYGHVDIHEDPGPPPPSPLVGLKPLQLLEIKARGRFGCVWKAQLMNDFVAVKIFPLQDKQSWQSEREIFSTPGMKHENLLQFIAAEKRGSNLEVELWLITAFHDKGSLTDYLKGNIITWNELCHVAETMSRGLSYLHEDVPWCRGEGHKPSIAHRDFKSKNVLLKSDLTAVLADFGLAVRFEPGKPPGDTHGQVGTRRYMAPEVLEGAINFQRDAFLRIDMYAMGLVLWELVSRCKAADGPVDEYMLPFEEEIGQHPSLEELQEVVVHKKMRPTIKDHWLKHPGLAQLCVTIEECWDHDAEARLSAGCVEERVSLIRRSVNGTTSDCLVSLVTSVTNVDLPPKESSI
# PI4K2A (PI4K2 alpha), sequence (Q9BTU6 whole entry): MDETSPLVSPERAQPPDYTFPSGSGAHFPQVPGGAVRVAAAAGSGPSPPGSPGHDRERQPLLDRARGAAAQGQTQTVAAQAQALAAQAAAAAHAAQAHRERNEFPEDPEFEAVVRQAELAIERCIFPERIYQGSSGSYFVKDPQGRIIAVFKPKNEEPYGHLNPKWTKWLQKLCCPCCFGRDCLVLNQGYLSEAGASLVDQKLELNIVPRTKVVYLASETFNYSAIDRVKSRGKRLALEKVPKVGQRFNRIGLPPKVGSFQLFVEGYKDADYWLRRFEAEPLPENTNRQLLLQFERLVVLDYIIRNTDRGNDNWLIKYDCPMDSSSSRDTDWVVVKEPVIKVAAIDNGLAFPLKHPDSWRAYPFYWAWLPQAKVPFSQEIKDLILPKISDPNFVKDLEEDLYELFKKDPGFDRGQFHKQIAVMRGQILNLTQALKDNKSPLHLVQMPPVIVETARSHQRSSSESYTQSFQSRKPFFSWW
# PI4K2B (PI4K2 beta), sequence (Q8TCG2 whole entry): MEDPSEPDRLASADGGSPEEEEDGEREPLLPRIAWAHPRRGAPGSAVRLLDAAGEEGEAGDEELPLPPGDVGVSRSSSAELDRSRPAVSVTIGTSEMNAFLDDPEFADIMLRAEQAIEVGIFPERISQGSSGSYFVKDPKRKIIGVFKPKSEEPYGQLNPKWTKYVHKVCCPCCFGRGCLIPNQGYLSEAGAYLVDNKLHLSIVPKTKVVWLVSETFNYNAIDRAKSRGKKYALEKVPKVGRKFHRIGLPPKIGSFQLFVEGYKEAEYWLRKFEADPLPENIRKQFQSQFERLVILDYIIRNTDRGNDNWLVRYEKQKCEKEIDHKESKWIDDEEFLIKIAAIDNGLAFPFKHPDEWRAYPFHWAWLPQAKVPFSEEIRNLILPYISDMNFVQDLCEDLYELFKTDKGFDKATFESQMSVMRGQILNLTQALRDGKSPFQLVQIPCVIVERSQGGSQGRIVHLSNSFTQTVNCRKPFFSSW
compound,measurement,setting,value
"COc1ccc2nc3cc(Cl)ccc3c(Nc3cc(CN4CCCC4)c(O)c(CN4CCCC4)c3)c2n1 [Pyronaridine, 4-[(7-Chloro-2-methoxybenzo[b][1,5]naphthyridin-10-yl)amino]-2,6-bis(1-pyrrolidinylmethyl)phenol phosphate (1:4)]",inhibition at 1 µM,[1],4%
same,inhibition at 1 µM,[2],6%
same,inhibition at 1 µM,[3],1%
same,inhibition at 1 µM,[4],5%
same,inhibition at 1 µM,[5],0%
same,inhibition at 1 µM,[6],3%
same,inhibition at 1 µM,[7],-7%
same,inhibition at 1 µM,[8],1%
same,inhibition at 1 µM,[9],6%
same,inhibition at 1 µM,[10],17%
same,inhibition at 1 µM,[11],-1%
same,inhibition at 1 µM,[12],-9%
same,inhibition at 1 µM,[13],2%
same,inhibition at 1 µM,[14],0%
same,inhibition at 1 µM,[15],-7%
same,inhibition at 1 µM,[16],3%
same,inhibition at 1 µM,[17],8%
same,inhibition at 1 µM,[18],1%
same,inhibition at 1 µM,[19],-4%
same,inhibition at 1 µM,[20],8%
same,inhibition at 1 µM,[21],-13%
same,inhibition at 1 µM,[22],2%
same,inhibition at 1 µM,[23],-10%
same,inhibition at 1 µM,[24],-4%
same,inhibition at 1 µM,[25],4%
same,inhibition at 1 µM,[26],-4%
same,inhibition at 1 µM,[27],9%
same,inhibition at 1 µM,[28],-15%
